Assay results as given in ChEMBL document CHEMBL1144272, “Generation of a new class of hNK(2) receptor ligands using the 'fragment approach'” (Bioorg Med Chem Lett, 2005).
pKi: −log10 of the molar value.

Biological target: T1, Substance-K receptor (Homo sapiens, UniProt P21452)
T1 sequence (P21452 whole entry): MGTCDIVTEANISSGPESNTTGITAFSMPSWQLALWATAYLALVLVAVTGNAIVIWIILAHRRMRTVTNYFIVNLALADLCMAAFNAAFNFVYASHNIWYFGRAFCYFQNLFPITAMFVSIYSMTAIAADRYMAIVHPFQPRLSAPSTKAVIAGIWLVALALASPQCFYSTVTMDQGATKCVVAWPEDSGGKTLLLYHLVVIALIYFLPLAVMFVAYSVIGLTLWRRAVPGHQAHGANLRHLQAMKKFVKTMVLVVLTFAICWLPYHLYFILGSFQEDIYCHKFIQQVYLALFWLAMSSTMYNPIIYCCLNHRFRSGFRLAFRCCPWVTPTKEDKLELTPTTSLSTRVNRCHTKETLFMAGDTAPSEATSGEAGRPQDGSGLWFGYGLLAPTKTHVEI
Test: Binding affinity for human tachykinin receptor 2 was measured by using [125I]NKA as radio ligand

| pKi | SMILES |
| --- | --- |
| 5.10 | CC(C)(Oc1ccc(-c2ccccc2)cc1)C(=O)N[C@@H](Cc1ccccc1)C(=O)NCCCN1CCOCC1 |
| < 6.00 | COc1cc(COc2ccc(NC(=O)N[C@H](Cc3ccccc3)C(=O)NCCCN3CCOCC3)cc2)cc(OC)c1 |
| 6.10 | Cc1ccc(COc2ccc(NC(=O)N[C@@H](Cc3ccccc3)C(=O)NCCCN3CCOCC3)cc2)cc1 |
| < 5.52 | O=C(NCCCN1CCOCC1)[C@@H](Cc1ccccc1)NC(=O)N1CCN(c2ccccc2)CC1 |
| < 6.00 | CC(C)c1ccc(OC(C)(C)C(=O)N[C@H](Cc2ccccc2)C(=O)NCCCN2CCOCC2)cc1 |
| < 6.00 | CC(C)c1ccc(OC(C)(C)C(=O)N[C@@H](Cc2ccccc2)C(=O)NCCCN2CCOCC2)cc1 |
| 6.30 | O=C(Nc1ccc(OCc2cc(F)cc(F)c2)cc1)N[C@@H](Cc1ccccc1)C(=O)NCCCN1CCOCC1 |
| < 5.52 | CN(C(=O)N[C@@H](Cc1ccccc1)C(=O)NCCCN1CCOCC1)c1ccc(Oc2ccccc2)cc1 |
| < 5.52 | CN(C(=O)N[C@H](Cc1ccccc1)C(=O)NCCCN1CCOCC1)c1ccc(Oc2ccccc2)cc1 |
| 5.00 | CC(C)(Oc1cccc(-c2ccccc2)c1)C(=O)N[C@H](Cc1ccccc1)C(=O)NCCCN1CCOCC1 |
| < 5.52 | CN(C(=O)N[C@@H](Cc1ccccc1)C(=O)NCCCN1CCOCC1)c1cccc(Oc2ccccc2)c1 |
| 7.30 | CC(C)(C)c1ccc(Oc2ccc(NC(=O)N[C@@H](Cc3ccccc3)C(=O)NCCCN3CCOCC3)cc2)cc1 |
| < 5.52 | CC(C)(Nc1ccccc1)C(=O)N[C@H](Cc1ccccc1)C(=O)NCCCN1CCOCC1 |
| 6.92 | CC(C)(C)c1ccc(Oc2ccc(NC(=O)N[C@H](Cc3ccccc3)C(=O)NCCCN3CCOCC3)cc2)cc1 |
| < 5.52 | CN(C(=O)N[C@H](Cc1ccccc1)C(=O)NCCCN1CCOCC1)c1cccc(Oc2ccccc2)c1 |
| 5.70 | O=C(N[C@@H](Cc1ccccc1)C(=O)NCCCN1CCOCC1)C(c1ccccc1)c1ccccc1 |
| < 6.00 | O=C(Nc1ccc(OCc2cc(F)cc(F)c2)cc1)N[C@H](Cc1ccccc1)C(=O)NCCCN1CCOCC1 |
| 6.70 | O=C(Nc1ccc(Oc2cccc(F)c2)cc1)N[C@@H](Cc1ccccc1)C(=O)NCCCN1CCOCC1 |
| 6.89 | O=C(Nc1ccc(Sc2ccc(F)cc2)cc1)N[C@@H](Cc1ccccc1)C(=O)NCCCN1CCOCC1 |
| < 5.00 | O=C(Nc1ccccc1)N[C@H](Cc1ccccc1)C(=O)NCCCN1CCOCC1 |
| 7.80 | O=C(Nc1ccc(Oc2ccc(F)cc2)cc1)N[C@@H](Cc1ccccc1)C(=O)NCCCN1CCOCC1 |

| pKi | SMILES |
| --- | --- |
| < 5.52 | O=C(NCCCN1CCOCC1)[C@H](Cc1ccccc1)NC(=O)N1CCN(c2ccccc2)CC1 |
| 6.70 | CCc1ccc(Oc2ccc(NC(=O)N[C@@H](Cc3ccccc3)C(=O)NCCCN3CCOCC3)cc2)cc1 |
| < 6.51 | O=C(Nc1ccc(Oc2ccc(F)cc2)cc1)N[C@H](Cc1ccccc1)C(=O)NCCCN1CCOCC1 |
| 6.30 | O=C(Nc1ccc(Oc2ccccc2)cc1)N[C@H](Cc1ccccc1)C(=O)NCCCN1CCOCC1 |
| < 5.00 | O=C(N[C@H](Cc1ccccc1)C(=O)NCCCN1CCOCC1)c1cccc(-c2ccccc2)c1 |
| 5.20 | O=C(NCCCN1CCOCC1)[C@H](Cc1ccccc1)NC(=O)N1CCCC(O)(c2ccccc2)C1 (some centres not stated) |
| 6.52 | O=C(Nc1cccc(Oc2ccccc2)c1)N[C@H](Cc1ccccc1)C(=O)NCCCN1CCOCC1 |
| < 5.52 | CC(C)(Nc1ccccc1Oc1ccccc1)C(=O)N[C@@H](Cc1ccccc1)C(=O)NCCCN1CCOCC1 |
| 5.70 | O=C(N[C@@H](Cc1ccccc1)C(=O)NCCCN1CCOCC1)c1cccc(-c2ccccc2)c1 |
| 6.20 | O=C(Nc1ccc(OCc2cccc(Cl)c2)cc1)N[C@H](Cc1ccccc1)C(=O)NCCCN1CCOCC1 |
| 6.49 | O=C(Nc1ccc(OCc2cccc(Cl)c2)cc1)N[C@@H](Cc1ccccc1)C(=O)NCCCN1CCOCC1 |
| < 7.00 | O=C(Nc1ccc(Oc2ccc(OC(F)(F)F)cc2)cc1)N[C@@H](Cc1ccccc1)C(=O)NCCCN1CCOCC1 |
| < 5.00 | O=C(N[C@H](Cc1ccccc1)C(=O)NCCCN1CCOCC1)c1ccccc1 |
| 6.22 | CC(C)(Oc1ccc(Cl)cc1)C(=O)N[C@H](Cc1ccccc1)C(=O)NCCCN1CCOCC1 |
| 6.20 | CCc1ccc(Oc2ccc(NC(=O)N[C@H](Cc3ccccc3)C(=O)NCCCN3CCOCC3)cc2)cc1 |
| < 6.70 | O=C(Nc1ccc(Sc2ccc(F)cc2)cc1)N[C@H](Cc1ccccc1)C(=O)NCCCN1CCOCC1 |
| 5.30 | CC(C)(Oc1ccccc1-c1ccccc1)C(=O)N[C@H](Cc1ccccc1)C(=O)NCCCN1CCOCC1 |
| < 5.00 | O=C(N[C@@H](Cc1ccccc1)C(=O)NCCCN1CCOCC1)c1ccccc1 |
| < 6.00 | CC(C)(Oc1ccc(C(F)(F)F)cc1)C(=O)N[C@H](Cc1ccccc1)C(=O)NCCCN1CCOCC1 |
| < 5.00 | O=C(Nc1ccccc1Oc1ccccc1)N[C@H](Cc1ccccc1)C(=O)NCCCN1CCOCC1 |
| 5.70 | CN(Cc1ccccc1)C(=O)N[C@@H](Cc1ccccc1)C(=O)NCCCN1CCOCC1 |

| pKi | SMILES |
| --- | --- |
| 5.30 | O=C(Nc1ccc(OCc2ccc(C(F)(F)F)cc2)cc1)N[C@H](Cc1ccccc1)C(=O)NCCCN1CCOCC1 |
| 6.00 | O=C(Nc1ccc(Oc2ccccc2)cc1)N[C@@H](Cc1ccccc1)C(=O)NCCCN1CCOCC1 |
| 5.80 | O=C(NCCCN1CCOCC1)[C@H](Cc1ccccc1)NC(=O)N1CCC(Cc2ccccc2)CC1 |
| < 6.00 | O=C(Nc1ccc(Oc2cccc(F)c2)cc1)N[C@H](Cc1ccccc1)C(=O)NCCCN1CCOCC1 |
| < 6.00 | CC(C)(Oc1ccc(C(F)(F)F)cc1)C(=O)N[C@@H](Cc1ccccc1)C(=O)NCCCN1CCOCC1 |
| 6.60 | O=C(Nc1ccc(Oc2ccc(C(F)(F)F)cc2)cc1)N[C@@H](Cc1ccccc1)C(=O)NCCCN1CCOCC1 |
| < 6.00 | CC(C)c1cccc(OC(C)(C)C(=O)N[C@@H](Cc2ccccc2)C(=O)NCCCN2CCOCC2)c1 |
| 6.70 | O=C(Nc1cccc(Oc2ccccc2)c1)N[C@@H](Cc1ccccc1)C(=O)NCCCN1CCOCC1 |
| < 5.00 | O=C(N[C@H](Cc1ccccc1)C(=O)NCCCN1CCOCC1)C(c1ccccc1)c1ccccc1 |
| 5.80 | CC(C)(Oc1ccc(Cl)cc1)C(=O)N[C@@H](Cc1ccccc1)C(=O)NCCCN1CCOCC1 |
| 5.30 | O=C(Nc1ccccc1Oc1ccccc1)N[C@@H](Cc1ccccc1)C(=O)NCCCN1CCOCC1 |
| < 6.00 | CN(C(=O)N[C@@H](Cc1ccccc1)C(=O)NCCCN1CCOCC1)c1cccc(Oc2cccc(F)c2)c1 |
| < 6.00 | COc1ccc(Oc2ccc(NC(=O)N[C@H](Cc3ccccc3)C(=O)NCCCN3CCOCC3)cc2)cc1 |
| < 5.52 | CC(C)(Nc1ccccc1)C(=O)N[C@@H](Cc1ccccc1)C(=O)NCCCN1CCOCC1 |
| 5.52 | CN(Cc1ccccc1)C(=O)N[C@H](Cc1ccccc1)C(=O)NCCCN1CCOCC1 |
| 5.52 | O=C(N[C@H](Cc1ccccc1)C(=O)NCCCN1CCOCC1)c1ccccc1-c1ccccc1 |
| 5.70 | O=C(NCCCN1CCOCC1)[C@@H](Cc1ccccc1)NC(=O)N1CCC(Cc2ccccc2)CC1 |
| < 5.52 | O=C(NCCCN1CCOCC1)[C@@H](Cc1ccccc1)NC(=O)N(c1ccccc1)c1ccccc1 |
| 5.20 | CC(C)(Oc1cccc(-c2ccccc2)c1)C(=O)N[C@@H](Cc1ccccc1)C(=O)NCCCN1CCOCC1 |
| 6.70 | COc1cc(COc2ccc(NC(=O)N[C@@H](Cc3ccccc3)C(=O)NCCCN3CCOCC3)cc2)cc(OC)c1 |
| < 5.52 | O=C(NCCCN1CCOCC1)[C@H](Cc1ccccc1)NC(=O)N(c1ccccc1)c1ccccc1 |

| pKi | SMILES |
| --- | --- |
| < 6.00 | CC(C)c1cccc(OC(C)(C)C(=O)N[C@H](Cc2ccccc2)C(=O)NCCCN2CCOCC2)c1 |
| < 6.00 | O=C(Nc1ccc(Oc2ccc(C(F)(F)F)cc2)cc1)N[C@H](Cc1ccccc1)C(=O)NCCCN1CCOCC1 |
| < 6.00 | Cc1ccc(COc2ccc(NC(=O)N[C@H](Cc3ccccc3)C(=O)NCCCN3CCOCC3)cc2)cc1 |
| < 5.00 | O=C(NCCCN1CCOCC1)[C@@H](Cc1ccccc1)NC(=O)N1CCCC(O)(c2ccccc2)C1 (some centres not stated) |
| < 6.00 | O=C(Nc1ccc(Oc2ccc(OC(F)(F)F)cc2)cc1)N[C@H](Cc1ccccc1)C(=O)NCCCN1CCOCC1 |
| 6.51 | CC(C)(Oc1cccc(Cl)c1)C(=O)N[C@H](Cc1ccccc1)C(=O)NCCCN1CCOCC1 |
| < 5.00 | O=C(N[C@@H](Cc1ccccc1)C(=O)NCCCN1CCOCC1)c1ccccc1-c1ccccc1 |
| 6.70 | CC(C)c1ccc(Oc2ccc(NC(=O)N[C@H](Cc3ccccc3)C(=O)NCCCN3CCOCC3)cc2)cc1 |
| < 6.00 | CC(C)(Oc1cccc(Cl)c1)C(=O)N[C@@H](Cc1ccccc1)C(=O)NCCCN1CCOCC1 |
| 6.10 | O=C(Nc1ccc(OCc2ccc(C(F)(F)F)cc2)cc1)N[C@@H](Cc1ccccc1)C(=O)NCCCN1CCOCC1 |
| 5.51 | CC(C)(Oc1ccccc1-c1ccccc1)C(=O)N[C@@H](Cc1ccccc1)C(=O)NCCCN1CCOCC1 |
| < 5.52 | CC(C)(Nc1ccccc1Oc1ccccc1)C(=O)N[C@H](Cc1ccccc1)C(=O)NCCCN1CCOCC1 |
| 5.10 | CC(C)(Oc1ccc(-c2ccccc2)cc1)C(=O)N[C@H](Cc1ccccc1)C(=O)NCCCN1CCOCC1 |
| 6.51 | COc1ccc(Oc2ccc(NC(=O)N[C@@H](Cc3ccccc3)C(=O)NCCCN3CCOCC3)cc2)cc1 |
| < 5.00 | O=C(Nc1ccccc1)N[C@@H](Cc1ccccc1)C(=O)NCCCN1CCOCC1 |
| < 6.00 | CN(C(=O)N[C@H](Cc1ccccc1)C(=O)NCCCN1CCOCC1)c1cccc(Oc2cccc(F)c2)c1 |
| < 6.00 | CC(C)(Oc1ccc(F)cc1)C(=O)N[C@H](Cc1ccccc1)C(=O)NCCCN1CCOCC1 |
| 7.20 | CC(C)c1ccc(Oc2ccc(NC(=O)N[C@@H](Cc3ccccc3)C(=O)NCCCN3CCOCC3)cc2)cc1 |
| < 6.00 | CC(C)(Oc1ccc(F)cc1)C(=O)N[C@@H](Cc1ccccc1)C(=O)NCCCN1CCOCC1 |
